In patent US20080255162A1, “Pyrrolyl Substituted Pyrido[2,3-D]Pyrimidin-7-Ones and Derivatives Thereof as Therapeutic Agents” (WARNER-LAMBERT COMPANY LLC, priority 2004, published 2008):

Assays:
[1] = molecular target: T1, PI3Kγ (purified recombinant p101/p110γ protein) (Homo sapiens, UniProt P48736); assay: PI3Kγ In Vitro Kinase Assay; type: biochemical; conditions: final ATP 20 μM, 25 μM PIP2, G protein β1/γ2 subunits, 20 minutes at room temperature
T1 construct: HA; made in house; host or cells: Spodoptera frugiperda Sf9 cells (baculovirus co-infection)
T1 sequence (P48736 whole entry, species assumed): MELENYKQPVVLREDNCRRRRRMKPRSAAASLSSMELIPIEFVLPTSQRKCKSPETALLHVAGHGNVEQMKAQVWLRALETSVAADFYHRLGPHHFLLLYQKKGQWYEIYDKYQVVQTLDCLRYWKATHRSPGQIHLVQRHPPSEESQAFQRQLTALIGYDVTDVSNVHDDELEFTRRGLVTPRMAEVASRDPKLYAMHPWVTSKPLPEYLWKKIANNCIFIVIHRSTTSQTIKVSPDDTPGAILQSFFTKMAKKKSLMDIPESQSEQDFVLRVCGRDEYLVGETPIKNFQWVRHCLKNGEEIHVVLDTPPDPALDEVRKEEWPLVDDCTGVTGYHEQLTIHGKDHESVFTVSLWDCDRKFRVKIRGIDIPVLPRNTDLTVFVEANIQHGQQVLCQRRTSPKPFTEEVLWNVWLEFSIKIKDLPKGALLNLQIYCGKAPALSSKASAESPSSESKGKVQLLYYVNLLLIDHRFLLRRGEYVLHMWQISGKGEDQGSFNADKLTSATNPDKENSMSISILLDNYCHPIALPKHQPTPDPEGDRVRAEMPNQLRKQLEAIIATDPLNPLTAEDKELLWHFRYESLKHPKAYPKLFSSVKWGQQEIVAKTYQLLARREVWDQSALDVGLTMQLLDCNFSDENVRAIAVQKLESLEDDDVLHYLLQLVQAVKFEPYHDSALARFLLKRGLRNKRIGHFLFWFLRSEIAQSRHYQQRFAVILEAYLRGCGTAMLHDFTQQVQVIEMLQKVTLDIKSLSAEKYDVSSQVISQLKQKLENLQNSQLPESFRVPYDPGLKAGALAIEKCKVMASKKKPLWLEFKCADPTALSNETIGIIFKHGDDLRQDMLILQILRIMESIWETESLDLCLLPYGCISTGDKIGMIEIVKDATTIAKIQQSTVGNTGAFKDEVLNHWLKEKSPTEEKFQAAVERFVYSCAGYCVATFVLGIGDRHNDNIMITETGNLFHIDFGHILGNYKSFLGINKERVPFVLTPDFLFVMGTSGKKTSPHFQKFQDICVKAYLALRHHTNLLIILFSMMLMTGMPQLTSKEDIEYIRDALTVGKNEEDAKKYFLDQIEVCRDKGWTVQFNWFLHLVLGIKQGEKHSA
T1 sequence (Q8WYR1 whole entry partner, species assumed): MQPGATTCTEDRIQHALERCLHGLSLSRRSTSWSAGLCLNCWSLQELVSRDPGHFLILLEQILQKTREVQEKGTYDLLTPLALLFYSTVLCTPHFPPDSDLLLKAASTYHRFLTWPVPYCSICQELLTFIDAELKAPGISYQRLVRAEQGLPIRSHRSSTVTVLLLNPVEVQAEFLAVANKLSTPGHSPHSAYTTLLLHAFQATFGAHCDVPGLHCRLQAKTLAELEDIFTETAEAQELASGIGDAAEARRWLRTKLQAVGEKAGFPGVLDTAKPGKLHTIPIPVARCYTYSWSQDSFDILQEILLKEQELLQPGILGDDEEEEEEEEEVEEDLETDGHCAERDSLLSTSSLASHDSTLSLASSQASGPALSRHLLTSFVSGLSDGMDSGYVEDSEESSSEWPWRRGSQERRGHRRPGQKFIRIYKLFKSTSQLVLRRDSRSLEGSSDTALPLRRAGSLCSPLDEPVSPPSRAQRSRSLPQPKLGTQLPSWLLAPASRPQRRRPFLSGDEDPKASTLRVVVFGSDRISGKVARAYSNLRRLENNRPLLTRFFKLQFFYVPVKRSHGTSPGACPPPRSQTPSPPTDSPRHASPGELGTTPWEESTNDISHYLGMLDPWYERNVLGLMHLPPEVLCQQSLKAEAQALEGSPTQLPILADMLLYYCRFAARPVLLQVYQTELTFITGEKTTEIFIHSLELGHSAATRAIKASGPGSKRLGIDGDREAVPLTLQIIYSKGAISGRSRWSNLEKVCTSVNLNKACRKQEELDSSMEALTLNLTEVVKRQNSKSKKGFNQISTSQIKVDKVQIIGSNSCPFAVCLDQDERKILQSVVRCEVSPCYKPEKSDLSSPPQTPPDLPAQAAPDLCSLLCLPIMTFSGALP
Method: Spodtera frugiperda cells, grown in ESF921 media, were co-infected with baculovirus expressing a glu-tagged p101 and baculovirus expressing an HA-tagged p110γ, at a 3:1 ratio of p101 baculovirus to p110γ baculovirus. Sf9 cells were grown to 1×10^7 total cells/mL in 10 L bioreactors and harvested 48-72 hours post infection. Samples of infected cells were then tested for expression of p101/p110γ PI3 kinase by immunoprecipitation and Western Blot analysis methods (see below).
To purify PI3Kγ, 4 volumes of room temperature hypotonic lysis buffer (1 mM MgCl2, 1 mM DTT, 5 mM EGTA, 1 mM Pefabloc, 0.5 μM aprotinin, 5 μM leupeptin, 2 μM pepstatin, 5 μM E64, pH 8) per gram of cell paste, was poured onto frozen cell pellets with stirring, then lysed in a nitrogen “bomb” at 400 psi (599HC T316, Parr Instrument Co, Moline, Ill.). NaCl was added to 150 mM, and sodium cholate was added to 1% and mixed for another 45 minutes. The lysates were clarified by centrifugation for 25 minutes at 14,000 rpm. The lysates were then loaded over anti-glu-linked Protein-G Sepaharose beads (Covance Research Products, Richmond, Calif.) using 20 mL resin/50 g cell paste. The column was washed with 15 volumes of wash buffer (1 mM DTT, 0.2 mM EGTA, 1 mM Pefabloc, 0.5 μM aprotinin, 5 μM leupeptin, 2 μM pepstatin, 5 μM E64, 150 mM NaCl, 1% sodium cholate, pH 8). PI3Kγ was eluted with 6 column volumes of wash buffer that contain 100 μg/mL of a peptide that competes for binding of the glu tag. The column fractions with the eluted protein (determined by taking OD280 readings) were collected and dialyzed in 0.2 mM EGTA, 1 mM DTT, 1 mM Pefabloc, 5 μM leupeptin, 0.5% sodium cholate, 150 mM NaCl, and 50% glycerol, pH 8. The fractions were stored at −80° C. until further use.
Spodtera frugiperda cells were coinfected with baculovirus expressing a glu-tagged G protein β1 and baculovirus expressing a G protein β2, at a 1:1 ratio of glu-tagged G protein β1 baculovirus to G protein β2 baculovirus. Sf9 cells are grown in 10 L bioreactors and harvested 48-72 hours post infection. Samples of infected cells were tested for G protein β1/β2 expression by Western Blot analysis, as described below. Cell lysates were homogenized and loaded onto a column of glu-tagged beads as in Biological Example 1 and competed off the column with a glu peptide and processed as described in Biological Example 1.
The inhibitory properties of the compounds in Table 1 were assayed in an in vitro PI3K assay. In a 96-well polypropylene plate, each well was spotted with 2 μL of 50 times the desired final concentration of compound in DMSO. Purified recombinant p101/p110γ protein (0.03 μg; ˜2.7 nM) and G protein β1/γ2 subunits (0.09 μg; ˜57.7 nM) for each reaction was combined in the assay buffer (30 mM HEPES, 100 mM NaCl, 1 mM EGTA, and 1 mM DTT). ATP and [γ-^32P-ATP] (0.09 μCi) were added to this mixture so that the final ATP concentration in the reaction was 20 μM. Lipid micelles were formed by sonicating phosphatidylinositol-4,5-diphosphate (PIP2), phosphatidylethanolamine (PE), and Na-cholate in the assay buffer for 10 minutes, adding MgCl2 and incubating on ice for 20 minutes, for final concentrations of 25 μM PIP2, 300 μM PE, 0.02% Na-cholate, and 10 mM MgCl2 in the reaction. The reactions were started by adding equal volumes lipid and enzyme mixture in a total volume of 50 μL, allowed to run for 20 minutes at room temperature, and stopped with 100 μL 75 mM H3PO4. The lipid product was transferred to a glass fiber filter plate and washed with 75 mM H3PO4 several times. The presence of radioactive lipid product (PIP3) was measured by adding Wallac Optiphase mix to each well and counting in a Wallac 1450 Trilux plate reader (PerkinElmer Life Sciences Inc., Boston, Mass. 02118). The IC50 for each compound tested is reported in μM in the Table 2: […]

CDK2/cyclin A = CDK2/cyclin A (Homo sapiens, UniProt P24941); assay: CDK2/cyclinA In Vitro Kinase Assay; type: biochemical; conditions: 10 μM of each compound; Histone H1 substrate; 0.02 mM ATP; activity as percentage of controls with DMSO alone, mean of duplicates
Method: The inhibitory properties of the compounds of Examples 19, 24, and 31 were assayed in an in vitro CDK2/cyclinA assay at 10 μM of each compound in DMSO. CDK2/cyclin A (5-20 mU diluted in 50 mM Hepes pH 7.5, 1 mM DTT, 0.02% Brij35, 100 mM NaCl) was assayed against Histone H1 in a final volume of 25.5 μl containing 50 mM Hepes pH7.5, 1 mM DTT, 0.02% Brij35, 100 mM NaCl, Histone H1 (1 mg/ml), 10 mM magnesium acetate and 0.02 mM [^33P-γ-ATP](500-1000 cpm/pmole) and incubated for 30 min at room temperature. Assays were stopped by addition of 5 μl of 0.5 M (3%) orthophosphoric acid and then harvested onto P81 Unifilter plates and washed with 50 mM orthophosphoric acid. The filter plates were then counted in a scintillation counter.
The results in Table 3 are expressed as percentage of controls with DMSO alone (mean of duplicates ±the standard deviation from the mean).

Row | IC50 [1] [nM] | % of DMSO control (mean ± S.D.) (CDK2/cyclin A) [%] | SMILES
1 | 34 | 101 ± 6 | Cc1nc(Nc2cc(C(=O)O)n(C)c2)nc2c1ccc(=O)n2C1CCOCC1 [Example 19, 1-Methyl-4-[4-methyl-7-oxo-8-(tetrahydro-pyran-4-yl)-7,8-dihydro-pyrido[2,3-d]pyrimidin-2-ylamino]-1H-pyrrole-2-carboxylic acid]
2 | 9 | 85 ± 9 | Cc1nc(Nc2cc(C(=O)O)n(C)c2)nc2c1cc(F)c(=O)n2C1CCCC1 [Example 24, 4-(8-Cyclopentyl-6-fluoro-4-methyl-7-oxo-7,8-dihydro-pyrido[2,3-d]pyrimidin-2-ylamino)-1-methyl-1H-pyrrole-2-carboxylic acid]
3 | 5 | 104 ± 1 | CCn1c(=O)c(Cl)cc2c(C)nc(Nc3cc(C(=O)O)n(C)c3)nc21 [Example 31, 4-(6-Chloro-8-ethyl-4-methyl-7-oxo-7,8-dihydro-pyrido[2,3-d]pyrimidin-2-ylamino)-1-methyl-1H-pyrrole-2-carboxylic acid]
